According to US10048254B2, “Cyclic-di-AMP specific detection” (priority 2013, dated 2018):

How the values were obtained:
biotin-labeled c-di-AMP = experiment: Binding of truncated forms of CabP to biotin-labeled c-di-AMP; conditions: proteins expressed from pET28a(+)
Text: To investigate the c-di-AMP binding region of CabP, truncated forms of CabP were expressed and their ability to bind c-di-AMP examined.
Truncated forms included: P1, in which 15 amino acids were removed from the N-terminal of CabP; P2, which results from the removal of 94 amino acid residues from the C-terminal of CabP, thereby eliminating the TrkA_C region; and P3, in which both N- and C-terminal ends of CabP are truncated.
All PCR products were cloned into pET28a(+) to express P1, P2, and P3. These proteins were then used to evaluate their interaction with c-di-AMP.
No binding of P1, P2 or P3 was observed using biotin-labeled c-di-AMP, while binding to intact CabP expressed from pST2788 was normal.

CabP [1] = biological target: T1, CabP (Streptococcus pneumoniae, UniProt A0A0H2ZNB5); experiment: Competition of unlabeled nucleotides with labeled c-di-AMP for CabP, native gel; type: binding; conditions: 1,000-fold excess of unlabeled nucleotide, 1 μM CabP, FIG. 2D
Procedure: FIGS. 2A-D Interaction of CabP with c-di-AMP. (A) CabP and PdxR (control) were loaded for SDS-PAGE. Gels were either stained with Coomassie Bright Blue (Staining) or blotted with labeled c-di-AMP (Blotting). M, molecular weight marker (Fisher Scientific). (B) Separation of CabP and c-di-AMP reactions with 8% native gel. (C) Mobility of c-di-AMP in the presence or absence of the indicated proteins. (D) Mobility of labeled c-di-AMP mixed with 1 μM CabP in the presence or absence of the indicated unlabeled nucleotides. “cold nt” refers to unlabeled nucleotide.
(§1) The interaction between CabP and c-di-AMP was evaluated by multiple approaches. […] Proteins in the other half gel were transferred onto PVDF membrane and incubated with [α-^32P]c-di-AMP, which we generated from [α-^32P]ATP (MP Biomedicals) using purified Mycobacterium tuberculosis DacA (2). […] We then incubate labeled c-di-AMP with various concentration of CabP in the reaction with 50 mM Tris-HCl (pH7.5), 10 mM MgCl2, 5 mM CaCl2, 5 mM KCl, and 10% (v/v) glycerol. The samples were incubated for 30 min at room temperature and then separated the reactions with 8% native PAGE gel (3). […] However, the mobility of c-di-AMP was not retarded by PdxR (FIG. 2C), indicating the specificity.

PdxR [2] = experiment: Mobility retardation of labeled c-di-AMP in 8% native PAGE gel (control protein); type: binding; conditions: FIG. 2C
CabP [3] = biological target: T1, CabP; experiment: Mobility retardation of labeled c-di-AMP in 8% native PAGE gel; type: binding; conditions: 30 min at room temperature, FIG. 2B, read-out: affinity constant
Procedure: as §1

M. tuberculosis DacA = M. tuberculosis DacA (Mycobacterium tuberculosis, UniProt P9WNW5); experiment: as above; type: binding; conditions: purified M. tuberculosis DacA, FIG. 2C
Procedure: as §1

CabP [4] = biological target: T1, CabP; experiment: Blot of SDS-PAGE-separated protein on PVDF membrane incubated with [α-32P]c-di-AMP; type: binding; conditions: FIG. 2A
Procedure: as §1

PdxR [5] = type: binding; conditions: PdxR control on PVDF membrane, FIG. 2A
CabP [6] = biological target: T1, CabP; experiment: ELISA on CabP-coated plate, optimization of biotin-AHC-c-di-AMP concentration; type: binding
Procedure: The binding of c-di-AMP by CabP is very specific with good affinity, therefore, an ELISA method using a solid support coated with CabP to detect c-di-AMP was developed (FIG. 4). The coating concentration of CabP (Table 1) and the concentration of biotin-AHC-c-di-AMP (Table 2) were optimized.
In one embodiment, a 96-well microtiter plate was coated with CabP at 50 μg/ml in coating buffer (3.03 g/L Na2CO3 and 6.0 g/L NaHCO3), 100 μl/well, sealed and incubated overnight at 4° C.
The coating solution was removed by washing three times, that is, by filling the wells with 200 μl phosphate buffered saline (PBS) containing 0.05% (v/v) polysorbate 20 (TWEEN®-20), and aspirating.
The wells of the microtiter plate were then blocked with a blocking solution (1% BSA in PBS), 100 μl/well, and the plate incubated 1 h at room temperature.
To remove the blocking solution, the plates were washed 3 times with PBS containing 0.05% (v/v) polysorbate 20 (TWEEN®-20). 25 nM biotin-labeled c-di-AMP was diluted in 50 mM Tris-HCl (pH 8.0) or other appropriate media/solution and mixed with two-fold serial diluted standards (from 200 nM to 6.25 nM), or samples prepared within 50 mM Tris-HCl (pH 8.0) or the same media/solution. 100 μl/well, incubate 2 h at room temperature.
The standards and the samples were removed, and the wells washed 3 times with PBS containing 0.05% (v/v) polysorbate 20 (TWEEN®-20).
Streptavidin-HRP (Thermo Scientific) diluted at 1:10,000 with PBS containing 0.05% (v/v) polysorbate 20 (TWEEN®-20), was added to the wells, 100 μl/well, and the plate incubated 1 h at room temperature.
The streptavidin-HRP solution was removed by washing the wells 3 times with PBS containing 0.05% (v/v) polysorbate 20 (TWEEN®-20).
A substrate solution [20 ml 0.1 M citric acid (pH 5.0), 20 μl 30% H2O2, and 10 mg o-phenylenediamine (OPD) (Sigma, 1 tablet)], 100 μl/well, was added to each well. After approximately 30 minutes (typical) or sufficient color development, 100 μl/well stop solution (2 N H2SO4) was added to each well. The absorbance of each well was read with a plate reader at 492 nm.

T1 sequence (A0A0H2ZNB5 whole entry, added parts left off): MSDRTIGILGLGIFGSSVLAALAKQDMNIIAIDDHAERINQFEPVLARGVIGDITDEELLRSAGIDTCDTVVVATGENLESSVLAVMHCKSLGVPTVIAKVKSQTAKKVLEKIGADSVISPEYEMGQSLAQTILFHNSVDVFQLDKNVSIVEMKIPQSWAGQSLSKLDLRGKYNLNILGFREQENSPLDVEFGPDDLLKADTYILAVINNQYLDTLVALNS
Chain of M. tuberculosis DacA (P9WNW5 whole entry): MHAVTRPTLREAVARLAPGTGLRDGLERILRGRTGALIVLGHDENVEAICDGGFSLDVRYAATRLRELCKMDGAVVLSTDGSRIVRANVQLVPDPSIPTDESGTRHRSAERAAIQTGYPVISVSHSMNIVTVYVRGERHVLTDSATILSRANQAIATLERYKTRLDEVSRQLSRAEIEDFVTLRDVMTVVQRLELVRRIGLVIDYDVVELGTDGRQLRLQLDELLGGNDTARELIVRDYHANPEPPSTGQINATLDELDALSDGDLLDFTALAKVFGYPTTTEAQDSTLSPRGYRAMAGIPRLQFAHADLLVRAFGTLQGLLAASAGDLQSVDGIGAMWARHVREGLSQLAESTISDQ

CabP
binding to biotin-labeled c-di-AMP (biotin-labeled c-di-AMP): normal

Nc1ncnc2c1ncn2[C@@H]1O[C@@H]2COP(=O)(O)O[C@H]3[C@@H](O)[C@H](n4cnc5c(N)ncnc54)O[C@@H]3COP(=O)(O)O[C@H]2[C@H]1O [c-di-AMP, cyclic di-adenosine monophosphate]
free labeled c-di-AMP in the presence of unlabeled nucleotide (CabP [1]): free c-di-AMP could be observed
retardation of c-di-AMP mobility (PdxR [2]): not retarded
Kd (CabP [3]): ~150 nM
retardation of c-di-AMP mobility (M. tuberculosis DacA): retardation was also observed

[α-^32P]c-di-AMP [labeled c-di-AMP]
binding of labeled c-di-AMP to blotted protein (CabP [4]): bound
binding of labeled c-di-AMP to blotted protein (PdxR [5]): not

biotin-AHC-c-di-AMP [B-c-di-AMP]
ELISA signal, Binding Buffer (CabP [6]; [B-c-di-AMP] 0.78125): 0.158
ELISA signal, Binding Buffer (CabP [6]; [B-c-di-AMP] 1.5625): 0.2503
ELISA signal, Binding Buffer (CabP [6]; [B-c-di-AMP] 3.125): 0.4685
ELISA signal, Binding Buffer (CabP [6]; [B-c-di-AMP] 6.25): 0.7071
ELISA signal, Binding Buffer (CabP [6]; [B-c-di-AMP] 12.5): 0.8821
ELISA signal, Binding Buffer (CabP [6]; [B-c-di-AMP] 25): 1.1813
ELISA signal, Binding Buffer (CabP [6]; [B-c-di-AMP] 50): 1.352
ELISA signal, Binding Buffer (CabP [6]; [B-c-di-AMP] 100): 1.4377
